Source: patent US20240360178A1, “MACROCYCLIC IMMUNOMODULATORS” (Bristol-Myers Squibb Company, priority 2021, published 2024)
Positions of bridges follow the written chain, without caps; N, C: chain ends. Non-standard residues stand in square brackets, D forms with d. Residues, ends and D or L forms follow the SMILES beside them. ξ: configuration not given here. *: point of attachment. Phe(4-COOH) = N[C@@H](Cc1ccc(C(=O)O)cc1)C(=O)O; Bip = N[C@@H](Cc1ccc(-c2ccccc2)cc1)C(=O)O; Phe(3-OMe) = COc1cccc(C[C@H](N)C(=O)O)c1; NMeF = CN[C@@H](Cc1ccccc1)C(=O)O; 3Pal = N[C@@H](Cc1cccnc1)C(=O)O; 4Pal = N[C@@H](Cc1ccncc1)C(=O)O; dHyp = O=C(O)[C@H]1C[C@H](O)CN1; dPip = O=C(O)[C@H]1CCCCN1; Carboxymethyl = O=C(O)C*; NMeA = CN[C@@H](C)C(=O)O; dAze = O=C(O)[C@H]1CCN1; ξV = CC(C)C(N)C(=O)O; Sar = CNCC(=O)O

Target: T1, human PD-1 (Jurkat-PD-1 cells) / PE-labeled human PD-L1-Ig (Homo sapiens, UniProt Q15116)
T1 construct: expressed in transfected cells; host or cells: Jurkat cell line over-expressing human PD-1
Assay: Jurkat-PD-1 Cell Binding High-Content Screening Assay (CBA); Jurkat hPD1-PDL1 assay
Conditions: Jurkat cell line over-expressing human PD-1; PE-labeled PD-L1-Ig 20 nM final; compound incubated 2 hours at 37° C.; read-out: Jurkat HPD1-PDL1 IC50
Procedure: The ability of the compounds of formula (I) to bind to PD-1 was investigated using a Jurkat-PD-1 Cell Binding High-Content Screening Assay.
Jurkat-PD-1 Cell Binding High-Content Screening Assay (CBA)
Phycoerythrin (PE) was covalently linked to the Ig epitope tag of human PD-L1-Ig and fluorescently-labeled PD-L1-Ig was used for binding studies with a Jurkat cell line over-expressing human PD-1 (Jurkat-PD-1). Briefly, 8×10^3 Jurkat-hPD-1 cells were seeded into 384 well plates in 20 μL of DMEM supplemented with 10% fetal calf serum. 100 nL of compound was added to cells followed by incubation at 37° C. for 2 hours. Then, 5 μL of PE-labeled PD-L1-Ig (20 nM final), diluted in DMEM supplemented with 10% fetal calf serum. […] Data was collected and processed using a Cell Insight NXT High Content Imager and associated software.

T1 sequence (Q15116 25-288): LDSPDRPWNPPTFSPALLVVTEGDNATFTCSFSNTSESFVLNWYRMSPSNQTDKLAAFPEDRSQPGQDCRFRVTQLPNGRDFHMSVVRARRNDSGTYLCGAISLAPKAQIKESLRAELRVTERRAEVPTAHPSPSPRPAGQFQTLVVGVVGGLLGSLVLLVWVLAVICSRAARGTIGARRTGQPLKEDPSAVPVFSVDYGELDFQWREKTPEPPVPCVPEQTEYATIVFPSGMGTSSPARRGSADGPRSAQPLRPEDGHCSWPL

Structure (SMILES)	IC50 [nM]
CC(C)C[C@@H]1NC(=O)[C@H](CCCNC(=N)N)NC(=O)[C@H](Cc2ccccc2)N(C)C(=O)[C@H](C)N(C)C(=O)[C@H](CCCNC(=N)N)NC(=O)[C@H](Cc2ccc(-c3ccccc3)cc2)NC(=O)[C@H](C(C)C)NC(=O)[C@H](Cc2c[nH]c3ccccc23)NC(=O)[C@H](CC(=O)O)NC(=O)[C@H](Cc2ccc(O)cc2)NC(=O)[C@H](Cc2ccccc2)NC(=O)CSC[C@@H](C(=O)NCC(N)=O)NC(=O)[C@H](CO)NC(=O)[C@H](C(C)C)NC1=O [Example 1000] ({CH2CO}-FYDWV[Bip]R[NMeA][NMeF]RLVSCG-NH2; thioether N-14)	260
CC(C)C[C@@H]1NC(=O)[C@H](Cc2c[nH]c3ccccc23)NC(=O)[C@H](CC(=O)O)NC(=O)[C@H](Cc2ccc(O)cc2)NC(=O)[C@H](Cc2ccccc2)NC(=O)CSC[C@@H](C(=O)NCC(N)=O)NC(=O)[C@H](CO)NC(=O)[C@H](C(C)C)NC(=O)[C@H](CC(C)C)NC(=O)[C@H](CC(N)=O)NC(=O)CN(C)C(=O)[C@H](C)N(C)C(=O)[C@H](C(C)C)NC(=O)[C@H](Cc2ccc(-c3ccccc3)cc2)NC1=O [Example 1001] ({CH2CO}-FYDWL[Bip]V[NMeA][Sar]NLVSCG-NH2; thioether N-14)	920
CC(C)C[C@@H]1NC(=O)[C@H](Cc2c[nH]c3ccccc23)NC(=O)[C@H](CC(=O)O)NC(=O)[C@H](Cc2ccc(O)cc2)NC(=O)[C@H](Cc2ccccc2)NC(=O)CSC[C@@H](C(=O)N[C@@H](C)C(N)=O)NC(=O)[C@H](CO)NC(=O)[C@H](C(C)C)NC(=O)[C@H](CC(C)C)NC(=O)[C@H](CC(N)=O)NC(=O)CN(C)C(=O)[C@H]2C[C@H](O)CN2C(=O)C(C(C)C)NC(=O)[C@H](Cc2ccc(-c3ccccc3)cc2)NC1=O (stereo partly drawn) [Example 1003] ({CH2CO}-FYDWL[Bip][ξV][dHyp][Sar]NLVSCA-NH2; thioether N-14)	760
CC(C)C[C@@H]1NC(=O)[C@H](Cc2c[nH]c3ccccc23)NC(=O)[C@H](CC(=O)O)NC(=O)[C@H](Cc2ccc(O)cc2)NC(=O)[C@H](Cc2ccccc2)NC(=O)CSC[C@@H](C(=O)N[C@@H](C)C(N)=O)NC(=O)[C@H](CO)NC(=O)[C@H](C(C)C)NC(=O)[C@H](CC(C)C)NC(=O)[C@H](CC(N)=O)NC(=O)[C@H]2CCCCN2C(=O)[C@H]2CCCN2C(=O)[C@H](C(C)C)NC(=O)[C@H](Cc2ccc(-c3ccccc3)cc2)NC1=O [Example 1006] ({CH2CO}-FYDWL[Bip]V[dP][dPip]NLVSCA-NH2; thioether N-14)	40
CC(C)C[C@@H]1NC(=O)[C@H](Cc2c[nH]c3ccccc23)NC(=O)[C@H](CC(=O)O)NC(=O)[C@H](Cc2ccc(O)cc2)NC(=O)[C@H](Cc2ccccc2)NC(=O)CSC[C@@H](C(=O)N[C@@H](C)C(N)=O)NC(=O)[C@H](CO)NC(=O)[C@H](C(C)C)NC(=O)[C@H](CC(C)C)NC(=O)[C@H](CC(N)=O)NC(=O)[C@H]2CCCN2C(=O)[C@H]2CCCN2C(=O)[C@H](C(C)C)NC(=O)[C@H](Cc2ccc(-c3ccccc3)cc2)NC1=O [Example 1007] ({CH2CO}-FYDWL[Bip]V[dP][dP]NLVSCA-NH2; thioether N-14)	150
CC(C)C[C@@H]1NC(=O)[C@H](Cc2c[nH]c3ccccc23)NC(=O)[C@H](CC(=O)O)NC(=O)[C@H](Cc2ccc(O)cc2)NC(=O)[C@H](Cc2ccccc2)NC(=O)CSC[C@@H](C(=O)N[C@@H](C)C(N)=O)NC(=O)[C@H](CO)NC(=O)[C@H](C(C)C)NC(=O)[C@H](CC(C)C)NC(=O)[C@H](CC(N)=O)NC(=O)[C@H]2CCN2C(=O)[C@H](C)N(C)C(=O)[C@H](C(C)C)NC(=O)[C@H](Cc2ccc(-c3ccccc3)cc2)NC1=O [Example 1021] ({CH2CO}-FYDWL[Bip]V[NMeA][dAze]NLVSCA-NH2; thioether N-14)	40
CC(C)C[C@@H]1NC(=O)[C@H](Cc2c[nH]c3ccccc23)NC(=O)[C@H](CC(=O)O)NC(=O)[C@H](Cc2ccc(O)cc2)NC(=O)[C@H](Cc2ccncc2)NC(=O)CSC[C@@H](C(=O)N[C@@H](C)C(N)=O)NC(=O)[C@H](CO)NC(=O)[C@H](C(C)C)NC(=O)[C@H](CC(C)C)NC(=O)[C@H](CC(N)=O)NC(=O)[C@H]2CCCN2C(=O)[C@H](C)N(C)C(=O)[C@H](C(C)C)NC(=O)[C@H](Cc2ccc(-c3ccccc3)cc2)NC1=O [Example 1023] ({CH2CO}-[4Pal]YDWL[Bip]V[NMeA][dP]NLVSCA-NH2; thioether N-14)	40
CC(C)C[C@@H]1NC(=O)[C@H](Cc2c[nH]c3ccccc23)NC(=O)[C@H](CC(=O)O)NC(=O)[C@H](Cc2ccc(OCC(=O)O)cc2)NC(=O)[C@H](Cc2ccccc2)NC(=O)CSC[C@@H](C(=O)NCC(N)=O)NC(=O)[C@H](CO)NC(=O)[C@H](C(C)C)NC(=O)[C@H](CC(C)C)NC(=O)[C@H](CC(N)=O)NC(=O)CN(C)C(=O)[C@H](C)N(C)C(=O)[C@H](C(C)C)NC(=O)[C@H](Cc2ccc(-c3ccccc3)cc2)NC1=O [Example 1030] ({CH2CO}-FY(Carboxymethyl)DWL[Bip]V[NMeA][Sar]NLVSCG-NH2; thioether N-14)	60
CC(C)C[C@@H]1NC(=O)[C@H](Cc2c[nH]c3ccccc23)NC(=O)[C@H](CC(=O)O)NC(=O)[C@H](Cc2ccc(O)cc2)NC(=O)[C@H](CC(N)=O)NC(=O)CSC[C@@H](C(=O)N[C@@H](C)C(N)=O)NC(=O)[C@H](CO)NC(=O)[C@H](C(C)C)NC(=O)[C@H](CC(C)C)NC(=O)[C@H](CC(N)=O)NC(=O)[C@H]2CCCN2C(=O)[C@H](C)N(C)C(=O)[C@H](C(C)C)NC(=O)[C@H](Cc2ccc(-c3ccccc3)cc2)NC1=O [Example 1031] ({CH2CO}-NYDWL[Bip]V[NMeA][dP]NLVSCA-NH2; thioether N-14)	60

More lines, in order of falling IC50, values ahead:

IC50 [nM]	Structure (SMILES)
50	CC(C)C[C@@H]1NC(=O)[C@H](Cc2c[nH]c3ccccc23)NC(=O)[C@H](CC(=O)O)NC(=O)[C@H](Cc2ccc(O)cc2)NC(=O)[C@H](Cc2ccccc2)NC(=O)CSC[C@@H](C(=O)N[C@@H](C)C(N)=O)NC(=O)[C@H](CO)NC(=O)[C@H](C(C)C)NC(=O)[C@H](CC(C)C)NC(=O)[C@H](CC(N)=O)NC(=O)[C@H]2CCCN2C(=O)[C@H](C)N(C)C(=O)[C@H](CCCNC(=N)N)NC(=O)[C@H](Cc2ccc(-c3ccccc3)cc2)NC1=O [Example 1027] ({CH2CO}-FYDWL[Bip]R[NMeA][dP]NLVSCA-NH2; thioether N-14)
50	CC(C)C[C@@H]1NC(=O)[C@H](C)NC(=O)[C@H]2CCCN2C(=O)[C@H](C)N(C)C(=O)[C@H](CCC(=O)O)NC(=O)[C@H](Cc2ccc(-c3ccccc3)cc2)NC(=O)[C@H](CC(C)C)NC(=O)[C@H](Cc2c[nH]c3ccccc23)NC(=O)[C@H](CC(=O)O)NC(=O)[C@H](Cc2ccc(O)cc2)NC(=O)[C@H](Cc2ccccc2)NC(=O)CSC[C@@H](C(=O)N[C@@H](C)C(N)=O)NC(=O)[C@H](CO)NC(=O)[C@H](C(C)C)NC1=O [Example 1028] ({CH2CO}-FYDWL[Bip]E[NMeA][dP]ALVSCA-NH2; thioether N-14)
50	CC(C)C[C@@H]1NC(=O)[C@H](Cc2c[nH]c3ccccc23)NC(=O)[C@H](CC(=O)O)NC(=O)[C@H](Cc2ccc(OCC(=O)O)cc2)NC(=O)[C@H](Cc2ccccc2)NC(=O)CSC[C@@H](C(=O)N[C@@H](C)C(N)=O)NC(=O)[C@H](CO)NC(=O)[C@H](C(C)C)NC(=O)[C@H](CC(C)C)NC(=O)[C@H](CC(N)=O)NC(=O)[C@H]2CCCN2C(=O)[C@H](C)N(C)C(=O)[C@H](C(C)C)NC(=O)[C@H](Cc2ccc(-c3ccccc3)cc2)NC1=O [Example 1029] ({CH2CO}-FY(Carboxymethyl)DWL[Bip]V[NMeA][dP]NLVSCA-NH2; thioether N-14)
40	CC(C)C[C@@H]1NC(=O)[C@H](Cc2c[nH]c3ccccc23)NC(=O)[C@H](CC(=O)O)NC(=O)[C@H](Cc2ccc(C(=O)O)cc2)NC(=O)[C@H](Cc2ccccc2)NC(=O)CSC[C@@H](C(=O)N[C@@H](C)C(N)=O)NC(=O)[C@H](CO)NC(=O)[C@H](C(C)C)NC(=O)[C@H](CC(C)C)NC(=O)[C@H](CC(N)=O)NC(=O)[C@H]2CCCN2C(=O)[C@H](C)N(C)C(=O)[C@H](C(C)C)NC(=O)[C@H](Cc2ccc(-c3ccccc3)cc2)NC1=O [Example 1020] ({CH2CO}-F[Phe(4-COOH)]DWL[Bip]V[NMeA][dP]NLVSCA-NH2; thioether N-14)
40	CC(C)C[C@@H]1NC(=O)[C@H](Cc2c[nH]c3ccccc23)NC(=O)[C@H](CC(=O)O)NC(=O)[C@H](Cc2ccc(C(=O)O)cc2)NC(=O)[C@H](Cc2cccnc2)NC(=O)CSC[C@@H](C(=O)N[C@@H](C)C(N)=O)NC(=O)[C@H](CO)NC(=O)[C@H](C(C)C)NC(=O)[C@H](CC(C)C)NC(=O)[C@H](CC(N)=O)NC(=O)[C@H]2CCCN2C(=O)[C@H](C)N(C)C(=O)[C@H](C(C)C)NC(=O)[C@H](Cc2ccc(-c3ccccc3)cc2)NC1=O [Example 1025] ({CH2CO}-[3Pal][Phe(4-COOH)]DWL[Bip]V[NMeA][dP]NLVSCA-NH2; thioether N-14)
10	COc1cccc(C[C@@H]2NC(=O)[C@H](CC(=O)O)NC(=O)[C@H](Cc3ccc(O)cc3)NC(=O)[C@H](Cc3ccccc3)NC(=O)CSC[C@@H](C(=O)N[C@@H](C)C(N)=O)NC(=O)[C@H](CO)NC(=O)[C@H](C(C)C)NC(=O)[C@H](CC(C)C)NC(=O)[C@H](CC(N)=O)NC(=O)[C@H]3CCCN3C(=O)[C@H](C)N(C)C(=O)[C@H](C(C)C)NC(=O)[C@H](Cc3ccc(-c4ccccc4)cc3)NC(=O)[C@H](CC(C)C)NC2=O)c1 [Example 1022] ({CH2CO}-FYD[Phe(3-OMe)]L[Bip]V[NMeA][dP]NLVSCA-NH2; thioether N-14)
